Measured values taken from patent US6235787A, “Hydrazine derivatives” (Hoffmann-La Roche Inc., priority 1997, dated 2001).

Key:
Assay type in all cases: cell-based
[1] = tested on: TNF-α release (THP1 cells); experiment: Test A: Inhibition of TNF-α Release (LPS-stimulated THP1 cells, ELISA); details: Homo sapiens, THP-1, LPS-induced TNF-α release, 3 hours, 37° C., read-out: Test A IC50 (nMol)
Experimental: Test A: Inhibition of TNF-α Release
THP1 cells were cultivated in RPMI 1640 medium supplemented with antibiotics and 10% foetal calf serum, harvested by centrifugation and diluted to 5×10^5 cells/ml in the above medium supplemented with 20 mM HEPES buffer. Aliquots ([…]) of the cell suspension were plated out on 96 well culture plates and incubated for 0.5 hour at 37° C. prior to the addition of the test compounds. The latter were dissolved in dimethyl sulphoxide (DMSO) to a stock concentration of 1.2 mM which was diluted with phosphate buffered saline/10% DMSO solution to provide test compounds in final concentrations of 10^-9 to 10^-5 M, with each concentration being tested in duplicate. The cells were incubated with the test compounds for 0.5 hour at 37° C., LPS (bacterial lipopolysaccharide) was then added to a concentration of […] and incubation was continued for 3 hours at 37° C. in an atmosphere containing 5% CO2 and at 95% relative humidity. After centrifugation at 260 g for 10 minutes an aliquot of each supernatant was removed and the amount of TNF-a was estimated by ELISA (R & D Systems Europe Ltd., Abingdon, England). The concentration of test compound which brings about 50% inhibition of LPS-induced TNF-a release (IC50) was computed from the dose-response curve.

[2] = tested on: TGF-α release (Normal human epidermal keratinocytes); experiment: Test B: Inhibition of TGF-α Release (TPA-stimulated NHEK); details: 24 hours, 37° C., read-out: Test B IC50 (nMol)
Experimental: Test B: Inhibition of TGF-α Release
This test is an adaptation of the method described by R. J. Coffrey, R. Derynk, J. N. Wilcox, T. S. Bringman, A. S. Goustin, H. L. Moses and M. R. Pittelkow, Nature, (1987), 328, 816-820. Normal human epidermal keratinocytes (NHEK) (neonatal and adult) were supplied by Clonetics Corporation, San Diego, Calif., USA and at the third passage were plated out on 96 well culture plates at 2×10^3 to 10^4 cells per well and grown in a humidified incubator having a 5% CO2 atmosphere at 37° C. for 5 days in serum-free keratocyte growth medium (KGM; Clonetics Corporation). Test compounds were dissolved in DMSO and then diluted 10 times in keratinocyte basal medium (KBM; Clonetics Corporation). Serial dilutions of the test compounds were made in 10% DMSO in KBM to provide concentrations 12 times higher than the final assay concentration. The test compound dilutions (or vehicle only as controls) were added to the cells and incubation was then carried out at 37° C. for 0.5 hour. TGF-a release was then stimulated by the addition of 10 ng/ml TPA (phorbol 12-myristate 13-acetate). […]

[3] = tested on: Normal human epidermal keratinocytes (NHEK); experiment: Test C: Inhibition of Keratinocyte Proliferation (3H-thymidine incorporation); details: 3 days, read-out: Test C IC50 (nMol)
Experimental: Test C: Inhibition of Keratinocyte Proliferation
This test is an adaptation the methods described by T. Karashima, H. Hachisuka and Y. Sasai, J. Dermatol. Sci., (1996), 12, 246-254 and A. Olaniran, B. S. Baker, J. J. Garioch, A. V. Powles and L. Fry, Arch. Dermatol. Res., (1995), 287, 231-236. Normal human epidermal keratinocytes (NHEK) (neonatal and adult) were plated out on 96 well culture plates at 2×10^3 cells per well. Following attachment of the cells to the plate by incubation for 24 hours in a humidified incubator having a 5% CO2 atmosphere at 37° C. in serum-free KGM (see above), the medium was replaced with KBM (see above) for 4 days in order to arrest the growth of the cells. Test compounds were dissolved in DMSO and then diluted 10 times in KBM. Serial dilutions of the test compounds were made in 10% DMSO in KBM to provide concentrations 11 times higher than the final assay concentration. The cells were then returned to KGM and the test compound dilutions (or vehicle only for controls) were added immediately. After incubation for 3 days the cells were pulsed with […] ^3 H-thymidine, specific activity 5 Ci/mmol (Amersham International plc, Little Chalfont, Buckinghamshire, UK), for the last 16 hours. Cells were then detached using trypsin-EDTA and harvested. ^3 H-Thymidine incorporation as a measure of proliferation was determined by scintillation counting techniques. […]

Row | Compound | IC50 [1] | IC50 [2] | IC50 [3]
1 | CC(C)C[C@@H](C(=O)NN(c1ccccc1)S(C)(=O)=O)[C@H](C/C=C/c1ccccc1)C(=O)NO [Compound A, (E)-2(R)-[1(S)-(Hydroxycarbamoyl)-4-phenyl-3-butenyl]-2'-(methanesulphonyl)-4-methyl-2'-phenylvalerohydrazide] | 0.437 µM | 0.21 µM | 1.3 µM
2 | COc1ccc(N(NC(=O)[C@H](CC(C)C)[C@H](C/C=C/c2ccccc2)C(=O)NO)S(C)(=O)=O)cc1 [Compound B, 1(E)-2(R)-[1(S)-(Hydroxycarbamoyl)-4-phenyl-3-butenyl]-2'-(methanesulphonyl)-2'-(4-methoxyphenyl)-4-methylvalerohydrazide] | 0.515 µM | 0.255 µM | 1.1 µM
3 | COC(=O)N(CC(C)C)NC(=O)[C@H](CC(C)C)[C@H](C/C=C/c1ccccc1)C(=O)NO [Compound I, Methyl (E)-3-[2(R)-[1(S)-(hydroxycarbamoyl)-4-phenyl-3-butenyl]-4-methylvaleryl]-2-isobutylcarbazate] | 0.881 µM | – | –
4 | CC(C)C[C@@H](C(=O)NN(CC1CCCCC1)S(C)(=O)=O)[C@H](C/C=C/c1ccccc1)C(=O)NO [D, (E)-2'-(Cyclohexylmethyl)-2(R)-[1(S)-(hydroxycarbamoyl)-4-phenyl-3-butenyl]-2'-(methanesulphonyl)-4-methylvalerohydrazide] | 0.408 µM | – | –
5 | CC[C@H](C)CN(NC(=O)[C@H](CC(C)C)[C@H](C/C=C/c1ccccc1)C(=O)NO)S(C)(=O)=O [G, (E)-2(R)-[1(S)-(hydroxycarbamoyl)-4-phenyl-3-butenyl]-2'-(methanesulphonyl)-4-methyl-2'-[2(S)-methylbutyl]valerohydrazide] | 0.428 µM | – | –
6 | CC(C)CC(=O)N(CC(C)C)NC(=O)[C@H](CC(C)C)[C@H](C/C=C/c1ccccc1)C(=O)NO [J, (E)-2(R)-[(S)-(Hydroxycarbamoyl)-4-phenyl-3-butenyl]-2'-(isobutyl)-2'-(isopentanoyl)-4-methylvalerohydrazide] | 0.933 µM | – | –

The next lines start with results.

Row | IC50 [1] | Compound | IC50 [2] | IC50 [3]
7 | 0.365 µM | CC(C)C[C@@H](C(=O)NN(Cc1ccccc1)S(C)(=O)=O)[C@H](C/C=C/c1ccccc1)C(=O)NO [C, (E)-2'-Benzyl-2(R)-[1(S)-(hydroxycarbamoyl)-4-phenyl-3-butenyl]-2'-(methanesulphonyl)-4-methylvalerohydrazide] | – | –
8 | 0.531 µM | CC(C)C[C@@H](C(=O)NN(CC(C)C)S(C)(=O)=O)[C@H](C/C=C/c1ccccc1)C(=O)NO [E, (E)-2(R)-[1(S)-(Hydroxycarbamoyl)-4-phenyl-3-butenyl]-2'-isobutyl-2'-(methanesulphonyl)-4-methylvalerohydrazide] | – | –
9 | 1.52 µM | CC(C)C[C@@H](C(=O)NN1C(=O)CCCC1=O)[C@H](C/C=C/c1ccccc1)C(=O)NO [F, (E)-2(R)-[(1S)-(Hydroxycarbamoyl)-4-phenyl-3-butenyl]-4-methyl-N-(2,6-dioxopiperidino)valeramide] | – | –
10 | 0.381 µM | C=C(C)CN(NC(=O)[C@H](CC(C)C)[C@H](C/C=C/c1ccccc1)C(=O)NO)S(C)(=O)=O [H] | – | –
